According to PMC9953885 (Biosensors, 2023):
Structures can show the parent of a compound that is named as a salt.

biological target: T1, human pancreatic lipase (hPL) (Homo sapiens, UniProt P16233); conditions: 10 µM; inhibitor
T1 construct: gene PNLIP
T1 sequence (P16233 17-465): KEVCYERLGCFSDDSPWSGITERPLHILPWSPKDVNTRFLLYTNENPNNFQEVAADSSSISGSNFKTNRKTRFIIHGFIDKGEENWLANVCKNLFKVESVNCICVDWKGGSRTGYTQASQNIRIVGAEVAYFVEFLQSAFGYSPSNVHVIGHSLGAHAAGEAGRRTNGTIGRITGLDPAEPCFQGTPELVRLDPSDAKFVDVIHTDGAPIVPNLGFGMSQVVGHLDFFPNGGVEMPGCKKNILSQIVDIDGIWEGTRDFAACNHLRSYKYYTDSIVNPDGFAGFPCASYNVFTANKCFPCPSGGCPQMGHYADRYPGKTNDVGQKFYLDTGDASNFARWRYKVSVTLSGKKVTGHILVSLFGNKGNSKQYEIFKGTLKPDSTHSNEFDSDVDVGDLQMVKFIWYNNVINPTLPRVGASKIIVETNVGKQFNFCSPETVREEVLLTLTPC
Procedure: First, we evaluated the inhibitory effect of 94 natural products derived from herbs and 94 drugs on hPL. In our high-throughput screening system, 1 ug/mL hPL was used, and the final concentration of the 94 natural products derived from herbs and 94 drugs used was 10 μM. Other conditions were the same as in the selectivity experiments. […] RLE was incubated with hPL and various enzymes, such as hCES1A, hCES2A, CA, AchE, BchE, 5-HKE, lysozyme, trypsin, thrombin, α-CT, FAP, PREP, pepsin, α-amylase, plasmin, notum and hSA, in a 100 µL incubation mixture consisting of Tris-HCl (pH = 7.4, 25 mM), NaCl (150 mM), CaCl2 (1 mM) and porcine bile salt (0.1 mg/mL) at a concentration of 1.5 µg/mL. The reaction was initiated by adding RLE to the preincubated enzyme mixture at 37 °C, and metabolite formation was determined by measuring the fluorescence intensity of resorufin at 590 nm. In addition, several amino acids (IIe, His, Trp, Val, Leu, Tyr, Ala, Thr, Pro, Asp, Lys, Met, Cys, Ser, Phe, Gly, Glu and Gln), ions (Ni^2+, Ca^2+, Na^+, K^+, Cu^2+, Zn^2+, Mg^2+, NH4^+, Cu^+, Fe^2+ and CN^-) and GSH were measured. The concentration of these interfering factors was 5 μM. […] In this case, a visual high-throughput assay was established to screen hPL inhibitors, using RLE as a fluorogenic substrate in a 96-well microplate.

Row | Compound | % of control remaining
1 | NCCc1ccc(O)c(O)c1 [3-Hydroxytyramine hydrochloride] | 86.11%
2 | CCCCC1OC(=O)C2=C1CCC=C2 (centres unmarked) [3-N-butyl-4,5-dihydrophthalide] | 75.65%
3 | CC(C)CCC[C@@H](C)[C@H]1CC[C@H]2[C@@H]3CCC4=CC(=O)CC[C@]4(C)[C@H]3CC[C@]12C [4-Cholesten-3-one] | 77.59%
4 | COc1ccc(-c2coc3cc(O)cc(O)c3c2=O)cc1 [5,7-Dihydrox-4'-methoxyisoflavone] | 100.90%
5 | COc1c2occc2cc2ccc(=O)oc12 [8-Methoxypsoralen] | 90.65%
6 | C=CC(=O)Nc1cc(Nc2nccc(-c3cn(C)c4ccccc34)n2)c(OC)cc1N(C)CCN(C)C [AZD-9291] | 92.69%
7 | C=C1C(=O)O[C@@H]2C[C@@]3(C)CCC[C@H](C)C3=C[C@H]12 [Alantolactone] | 61.11%
8 | COc1cc(O)cc2c1C(=O)C[C@@H](c1ccccc1)O2 [Alpinetin] | 107.78%
9 | Cc1nnc2n1-c1ccc(Cl)cc1C(c1ccccc1)=NC2 [Alprazolam] | 68.13%
10 | NCC[C@H](O)C(=O)N[C@@H]1C[C@H](N)[C@@H](O[C@H]2O[C@H](CN)[C@@H](O)[C@H](O)[C@H]2O)[C@H](O)[C@H]1O[C@H]1O[C@H](CO)[C@@H](O)[C@H](N)[C@H]1O [Amikacin] | 73.77%
11 | N=C(N)NC(=O)c1nc(Cl)c(N)nc1N [Amiloride hydrochloride] | 109.84%
12 | CCOC(=O)C1=C(COCCN)NC(C)=C(C(=O)OC)C1c1ccccc1Cl (centres unmarked) [Amlodipine] | 85.85%
13 | C=C1CC[C@@H]2[C@](C)(CO)[C@H](O)CC[C@@]2(C)[C@@H]1C/C=C1/C(=O)OC[C@H]1O [Andrographolide] | 70.38%
14 | O=c1cc(-c2ccc(O)cc2)oc2cc(O)cc(O)c12 [Apigenin] | 102.46%
15 | O=c1c(O[C@@H]2O[C@H](CO)[C@@H](O)[C@H](O)[C@H]2O)c(-c2ccc(O)cc2)oc2cc(O)cc(O)c12 [Astragalin] | 107.88%
16 | COC(=O)N[C@H](C(=O)N[C@@H](Cc1ccccc1)[C@@H](O)CN(Cc1ccc(-c2ccccn2)cc1)NC(=O)[C@@H](NC(=O)OC)C(C)(C)C)C(C)(C)C [Atazanavir] | 79.92%
17 | O=c1cc(-c2ccccc2)oc2cc(O)c(O)c(O)c12 [Baicalein] | 48.80%
18 | CN(C)C(=O)Oc1cc(OC(=O)N(C)C)cc(C(O)CNC(C)(C)C)c1 (centres unmarked) [Bambuterol hydrochloride] | 93.23%
19 | CC(=O)Nc1ccc(OC(=O)c2ccccc2OC(C)=O)cc1 [Benorilate] | 76.99%
20 | O=C(/C=C/c1ccccc1)OCc1ccccc1 [Benzyl cinnamate] | 74.62%

Row | Compound | % of control remaining
21 | COc1cc2c3cc1Oc1c(OC)c(OC)cc4c1[C@@H](Cc1cccc(c1)Oc1ccc(c(O)c1)C[C@@H]3N(C)CC2)N(C)CC4 [Berbamine Hydrochloride] | 69.86%
22 | COc1ccc2cc3[n+](cc2c1O)CCc1cc2c(cc1-3)OCO2 [Berberrubine] | 86.09%
23 | COc1c2ccoc2cc2oc(=O)ccc12 [Bergapten] | 54.11%
24 | O=C(O)/C=C/c1ccc(O)c(O)c1 [Caffeic acid] | 71.45%
25 | COc1ccc(-c2coc3cc(O[C@@H]4O[C@H](CO)[C@@H](O)[C@H](O)[C@H]4O)ccc3c2=O)cc1O [Calycosin 7-O-glucoside] | 84.02%
26 | NC(=O)N1c2ccccc2C=Cc2ccccc21 [Carbamazepine] | 104.15%
27 | Cc1cc(=O)c2c(O)c3c(O[C@@H]4O[C@H](CO)[C@@H](O)[C@H](O)[C@H]4O)cccc3cc2o1 [Cassiaside] | 81.67%
28 | CCC1=C[C@@H]2CN3CCc4c([nH]c5ccccc45)[C@@](C(=O)OC)(C2)[C@@H]13 [Catharanthine] | 81.11%
29 | CC(C)(O/N=C(\C(=O)N[C@@H]1C(=O)N2C(C(=O)[O-])=C(C[n+]3ccccc3)CS[C@H]12)c1csc(N)n1)C(=O)O [CeftazidiMe] | 118.41%
30 | CC1=C(O)C(=O)C=C2C1=CC=C1[C@@]2(C)CC[C@@]2(C)[C@@H]3C[C@](C)(C(=O)O)CC[C@]3(C)CC[C@]12C [Celastrol] | 84.16%
31 | Cc1ccc(-c2cc(C(F)(F)F)nn2-c2ccc(S(N)(=O)=O)cc2)cc1 [Celecoxib] | 90.67%
32 | CC1=C(C(=O)O)N2C(=O)[C@@H](NC(=O)[C@H](N)c3ccccc3)[C@H]2SC1 [Cephalexin] | 109.58%
33 | CN/C(=N\CCSCc1nc[nH]c1C)NC#N [Cimetidine] | 111.11%
34 | COC(=O)[C@H](c1ccccc1Cl)N1CCc2sccc2C1 [Clopidogrel sulfate] | 90.49%
35 | CN1CCN(C2=Nc3cc(Cl)ccc3Nc3ccccc32)CC1 [Clozapine] | 97.86%
36 | C[C@@H](Oc1cc(-c2cnn(C3CCNCC3)c2)cnc1N)c1c(Cl)ccc(F)c1Cl [Crizotinib] | 85.14%
37 | COc1cc(/C=C/C(=O)CC(=O)/C=C/c2ccc(O)c(OC)c2)ccc1O [Curcumin] | 75.83%
38 | O=P1(N(CCCl)CCCl)NCCCO1 (centres unmarked) [Cyclophosphamide] | 91.59%
39 | O=C(Cc1ccccc1F)C1CC1 [Cyclopropyl 2-fluorobenzyl ketone] | 117.10%
40 | Cc1nc(Nc2ncc(C(=O)Nc3c(C)cccc3Cl)s2)cc(N2CCN(CCO)CC2)n1 [Dasatinib] | 91.97%

Row | Compound | % of control remaining
41 | C=C1CC[C@@H]2[C@](C)(CO)[C@H](O)CC[C@@]2(C)[C@H]1C/C=C1\C=COC1=O [Dehydroandrographolide] | 89.55%
42 | COc1cc2c(cc1OC)-c1c(C)c3ccc(OC)c(OC)c3c[n+]1CC2 [Dehydrocorydaline] | 123.69%
43 | COc1ccc2c(c1)[C@]13CCCC[C@@H]1[C@H](C2)N(C)CC3 [Dextromethorphan] | 89.61%
44 | O=C(O)c1cc(-c2ccc(F)cc2F)ccc1O [Diflunisal] | 118.03%
45 | C[C@H]1O[C@@H](O[C@H]2[C@@H](O)C[C@H](O[C@H]3[C@@H](O)C[C@H](O[C@H]4CC[C@@]5(C)[C@H](CC[C@@H]6[C@@H]5C[C@@H](O)[C@]5(C)[C@@H](C7=CC(=O)OC7)CC[C@]65O)C4)O[C@@H]3C)O[C@@H]2C)C[C@H](O)[C@@H]1O [Digoxin] | 99.51%
46 | O=C1c2c(O)cc(O)cc2O[C@H](c2ccc(O)cc2)[C@H]1O [Dihydrokaempferol] | 109.31%
47 | O=C1c2c(O)cc(O)cc2O[C@H](c2cc(O)c(O)c(O)c2)[C@H]1O [Dihydromyricetin] | 95.62%
48 | CN(C)CCOC(c1ccccc1)c1ccccc1 [Diphenhydramine Hydrochloride] | 88.58%
49 | Nc1ccccc1NC(=O)c1ccc(CNC(=O)OCc2cccnc2)cc1 [Entinostat] | 102.02%
50 | COc1ccc(-c2oc3c(CC=C(C)C)c(O[C@@H]4O[C@H](CO)[C@@H](O)[C@H](O)[C@H]4O)cc(O)c3c(=O)c2O[C@@H]2O[C@@H](C)[C@H](O)[C@@H](O)[C@H]2O[C@@H]2O[C@@H](C)[C@H](O)[C@@H](O)[C@H]2O)cc1 [Epmedin C] | 81.94%
51 | O=c1ccc2cc(O)c(O)cc2o1 [Esculetin] | 86.12%
52 | NC(=O)N1c2ccccc2C[C@H](O)c2ccccc21 [Eslicarbazepine] | 103.44%
53 | CCc1cc(C(N)=S)ccn1 [Ethionamide] | 91.71%
54 | C#C[C@]1(O)CC[C@H]2[C@@H]3CCC4=CC(=O)CC[C@@H]4[C@H]3C(=C)C[C@@]21CC [Etonogestrel] | 62.97%
55 | COc1cc([C@@H]2c3cc4c(cc3[C@@H](O[C@@H]3O[C@@H]5CO[C@@H](C)O[C@H]5[C@H](O)[C@H]3O)[C@H]3COC(=O)[C@H]23)OCO4)cc(OC)c1O [Etoposide] | 65.05%
56 | O=C1[C@H](CC[C@H](O)c2ccc(F)cc2)[C@@H](c2ccc(O)cc2)N1c1ccc(F)cc1 [Ezetimibe] | 119.27%
57 | CCOC(=O)C1=C(C)NC(C)=C(C(=O)OC)C1c1cccc(Cl)c1Cl (centres unmarked) [Felodipine] | 93.02%
58 | CC(C)OC(=O)C(C)(C)Oc1ccc(C(=O)c2ccc(Cl)cc2)cc1 [Fenofibrate] | 94.68%
59 | CC(C(=O)O)c1cccc(Oc2ccccc2)c1 (centres unmarked) [Fenoprofen] | 91.13%
